# Experimental data reported in patent US20090110748A1, “Biocompatible Material and Process for Manufacturing the Same” (priority 2007, published 2009).
# Experiments:
# osteoporotic model mice [1] = test: Mineral concentration and ALP activity in mouse sera; format: in vivo; conditions: ovariectomized ICR female mice, fed test feeds for 2 months (doses Table 4)
# Method: (§1) For study ICR female model mice of 10 weeks (of 20 g) were used. These mice underwent ovariectomy (OVX control group) and sham operation (sham operated group), and were subsequently fed with a conventional diet for 2 months, and then divided into 6 groups, each group having 10 mice. Of these, an OVX control group and a sham operated group were fed with 1.5 to 1.8% calcium containing feed which contained calcium carbonate as a calcium source. Further as a reference group, one group was treated with a bisphosphonate preparation (risedronate), which is an anti-osteoporotic agent showing obviously higher bone density. Remaining 3 groups were fed with special feeds, containing foodstuff and food additives. Combinations of foodstuff and food additives used in the present study are shown below in Table 4.
# (§2) After being fed these feeds for 2 months, mice were decapitated for blood collection. Then serum was separated from the collected blood, and after that calcium, phosphorus, and magnesium concentrations and alkaline phosphatase level of the serum were determined. Furthermore, after a resection of femurs, a three-dimensional bone densitometry and bone structure analysis were conducted on the femoral distal epiphyses and diaphyses, using pQCT (Peripheral Quantitative Computed Tomography) and μCT (micro focus X-ray CT).
# Subsequently, blood was collected from the tested mice of each group, and mineral concentration and ALP activity in serum were determined. Blood collection was conducted by decapitating under a twilight sleep. The collected blood stood for 1 hour at ice temperature, and thereafter the serum was separated by a centrifuge for 10 minutes at 1000 rpm. Calcium amount was determined by chelete coloring method. 50 μL of serum was added to 5 mL of a 0.88 M monoethanolamine buffer adjusted to pH=11, and a mixture of o-cresol-phthalein complexone and 8-quinolinol as a coloring agent was further added. The resulting mixture was sufficiently stirred and stood for 5 minutes, and thereafter absorbance at 570 nm determined using a spectrometer. Phosphorus was determined by direct molybdenum blue method. After 0.2 mL of serum was added to 5 mL of a coloring agent and the resulting mixture stood for 15 minutes at room temperature, absorbance at 690 nm was determined using a spectrometer. The coloring agent was prepared by adding a surfactant to a mixture of ammonium molybdate, ammonium ferrous sulfate and sulfate. Magnesium was determined by xylidyl blue method. 3 mL of a coloring agent was added to 20 μL of serum and the resulting mixture stood for 10 minutes at room temperature, and thereafter absorbance at 520 nm was determined using a spectrometer. The coloring agent was prepared by adding a surfactant to a mixture of xylylazo violet I and ethylene glycol tetraacetic acid.
# Alkaline phosphatase was determined by phenyl phosphoric acid substrate method. After 50 μL of serum was added to 2 mL of a substrate buffer and heated at 37° C. for 15 minutes, 2 mL of 36 mM potassium ferricyanide. The resulting mixture was sufficiently stirred, and thereafter absorbance at 570 nm was determined using a spectrometer. The substrate buffer was prepared by adding a mixture of 4-aminoantipyrine and phenylphosphoric acid to 50 mM carbonate buffer adjusted to pH=10.5.
# In all of these determinations assay kits for clinical and biochemical use manufactured by Wako Pure Chemicals, Co., Ltd. were used.
# osteoporotic model mice [2] = test: pQCT three-dimensional bone densitometry of femoral distal epiphyses and diaphyses; format: in vivo, mouse; conditions: for Items showing a significant difference: number of the 14 pQCT parameters (epiphyses and diaphyses) differing significantly from OVX control group; for Epiphyses Bone Density, significant difference vs OVX control group / Epiphyses Cortical Bone Cross-Section, significant difference vs OVX control group / Epiphyses Cortical Bone Thickness, significant difference vs OVX control group / Epiphyses Trabecular Bone Density, significant difference vs OVX control group: femoral distal epiphyses
# Method: as §1, §2
# Subsequently, a bone mass density (mg/cm^3) as a physical quantity was analyzed separately for trabecular bones and cortical bones based on three-dimensional bone densitometry conducted using pQCT on the femoral distal epiphyses and diaphyses and cross-sectional images acquired in pQCT, and bone strength index was identified based on cortical bone width, second moment of area, and section modulus etc. Student's t-test was used for statistical treatment for comparison between the groups.
# osteoporotic model mice [3] = test: μCT three-dimensional trabecular structure analysis of femoral distal epiphyses; format: in vivo, mouse; conditions: for Conclusion of 3-D image analysis: effects on bone density and trabecular structure: OVX mice, distal epiphyses and diaphyses, FIGS. 8 and 9; for Order according to the importance of the effects on improvement of trabecular bone structure: ranked after sham and risedronate groups
# Method: as §1, §2
# For an analysis of the trabecular structure, three-dimensional image data of femoral distal epiphyses were acquired using X-ray μCT (MCT-CB130F, Hitachi Medico), of 8×8 μm focus, with micro focus X-ray tube. As conditions for imaging, tube voltage was 40 kV, tube current 100 μA, and voxel size 17.8×17.8×17.8 μm, so that 50 volume data for each were acquired. Three-dimensional images were reconstructed based on the acquired 50 two-dimensional images of a trabecular bone and a cortical bone. 3D parameters were then determined on these 3D images using trabecular structure measuring software (TRI/3D-BON; RATOC System Engineering, Co., Ltd). The determined structural parameters are listed below in Table 5.
# Student's t-test was used for statistical treatment for comparison between the groups. Only the parameters showing significant difference in the OVX control group are compared to those in the remaining groups.
# [4] = pQCT, femoral diaphyses, p value, Student's t-test, 2 months feeding
# [5] = pQCT, femoral diaphyses, p value, Student's t-test, 2 months feeding, listed as risedronate
# [6] = pQCT, p value, Student's t-test, 2 months feeding
# [7] = pQCT, p value, Student's t-test, 2 months feeding, listed as risedronate
SMILES,ALP activity in serum (osteoporotic model mice [1]) [BL unit],Ca in serum (osteoporotic model mice [1]) [mg/dL],Mg in serum (osteoporotic model mice [1]) [mg/dL],P in serum (osteoporotic model mice [1]) [mg/dL],Items showing a significant difference (osteoporotic model mice [2]),Conclusion of 3-D image analysis: effects on bone density and trabecular structure (osteoporotic model mice [3]),"Order according to the importance of the effects on improvement of trabecular bone structure (osteoporotic model mice [3]; μCT, femoral distal epiphyses)",other results
"CC(C)=CCC/C(C)=C/CC/C(C)=C/CC/C(C)=C/CC/C(C)=C/CC/C(C)=C/CC/C(C)=C/CC1=C(C)C(=O)c2ccccc2C1=O [MK-7, Vitamin K2 (MK-7)]",3.77 ± 1.76,9.34 ± 1.50,2.63 ± 0.63,7.12 ± 0.64,4,"both effects on an increased bone density and improved trabecular structure, with the improvement in trabecular structure being prevalent effect","MK7, the composite and MK4 is arranged in this order","Diaphyses parameters, difference vs OVX control group (osteoporotic model mice [2]; pQCT, femoral diaphyses, all parameters): no significant difference"
"O=P(O)(O)C(O)(Cc1cccnc1)P(=O)(O)O [Risedronate, risedronate]",3.65 ± 1.26,9.02 ± 1.15,3.12 ± 1.21,6.95 ± 0.32,6,–,–,"Diaphyses Cortical Bone Cross-Section, significant difference vs OVX control group (osteoporotic model mice [2]; [4]): p < 0.05; Diaphyses Cortical Bone Thickness, significant difference vs OVX control group (osteoporotic model mice [2]; [4]): p < 0.05; Diaphyses Cortical Bone Cross-Section, significant difference vs OVX control group (osteoporotic model mice [2]; [5]): significant increase; Diaphyses Cortical Bone Thickness, significant difference vs OVX control group (osteoporotic model mice [2]; [5]): significant increase; Epiphyses Bone Density, significant difference vs OVX control group (osteoporotic model mice [2]; [6]): p < 0.01; Epiphyses Cortical Bone Cross-Section, significant difference vs OVX control group (osteoporotic model mice [2]; [6]): p < 0.05; Epiphyses Cortical Bone Thickness, significant difference vs OVX control group (osteoporotic model mice [2]; [6]): p < 0.05; Epiphyses Trabecular Bone Density, significant difference vs OVX control group (osteoporotic model mice [2]; [6]): p < 0.05; Epiphyses Bone Density, significant difference vs OVX control group (osteoporotic model mice [2]; [7]): significant increase; Epiphyses Cortical Bone Cross-Section, significant difference vs OVX control group (osteoporotic model mice [2]; [7]): significant increase; Epiphyses Cortical Bone Thickness, significant difference vs OVX control group (osteoporotic model mice [2]; [7]): significant increase; Epiphyses Trabecular Bone Density, significant difference vs OVX control group (osteoporotic model mice [2]; [7]): significant increase; Number of parameters with significant effects on improvement of trabecular bone structure (osteoporotic model mice [3]; μCT, femoral distal epiphyses, vs OVX control group (Table 9)): 12"
"CC(C)=CCC/C(C)=C/CC/C(C)=C/CC/C(C)=C/CC1=C(C)C(=O)c2ccccc2C1=O [MK-4, Vitamin K2 (MK-4)]",3.52 ± 1.82,9.60 ± 0.51,2.67 ± 0.28,6.96 ± 0.44,2,improvement in bone internal structure was observed as a prevalent effect,"MK7, the composite and MK4 is arranged in this order","Diaphyses Trabecular Bone Density, significant difference vs OVX control group (osteoporotic model mice [2]; [4]): p < 0.05"
